Our source for the Kd, IC50 and inhibition values is US9845319B2, “Amide substituted thiazoles as modulators of RORyt” (Janssen Pharmaceutica NV, priority 2014, dated 2017).

Assay [1] has as its target T1, human RORγt ligand binding domain (RORγt LBD) (Homo sapiens, UniProt P51449).
T1 construct: His-tag (N); TurboTEV protease cleavage site (ENLYFQG) (N); made in house; host or cells: E. coli (pHIS1, a modified pET expression vector)
T1 sequence (P51449 with tags, fused parts or gaps): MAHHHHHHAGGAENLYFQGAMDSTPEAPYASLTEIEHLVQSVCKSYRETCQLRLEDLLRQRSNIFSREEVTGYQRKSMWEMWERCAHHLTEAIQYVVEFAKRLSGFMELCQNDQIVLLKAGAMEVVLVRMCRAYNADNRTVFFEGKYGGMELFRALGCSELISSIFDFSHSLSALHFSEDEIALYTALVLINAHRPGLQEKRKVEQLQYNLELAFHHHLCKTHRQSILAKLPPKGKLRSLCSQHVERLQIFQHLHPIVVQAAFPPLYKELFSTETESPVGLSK
The assay is described as follows: RORγt ThermoFluor assay. Conditions: estimated from thermal shift concentration response. As for the experimental part: This approach is applicable to a wide variety of systems, and rigorous in theoretical interpretation through quantitation of equilibrium binding constants (KD).
The shift in the melting point described as a ΔTm is proportional to the concentration and affinity of the ligand.
Protein and compound solutions are dispensed into black 384-well polypropylene PCR microplates (Abgene) and overlayed with silicone oil (1 μL, Fluka, type DC 200) to prevent evaporation.
Bar-coded assay plates are robotically loaded onto a thermostatically controlled PCR-type thermal block and then heated at a typical ramp-rate of 1° C./min for all experiments.
Fluorescence was measured by continuous illumination with UV light (Hamamatsu LC6) supplied via fiber optic and filtered through a band-pass filter (380-400 nm; >6 OD cutoff). Fluorescence emission of the entire 384-well plate was detected by measuring light intensity using a CCD camera (Sensys, Roper Scientific) filtered to detect 500±25 nm, resulting in simultaneous and independent readings of all 384 wells. Images were collected at each temperature, and the sum of the pixel intensity in a given area of the assay plate was recorded versus temperature. Reference wells contained RORγt without compounds, and the assay conditions were as follows: • 0.065 mg/mL RORγt • 60 μM 1,8-ANS • 100 mM Hepes, pH 7.0 • 10 mM NaCl • 2.5 mM GSH • 0.002% Tween-20
Project compounds were arranged in a pre-dosed mother plate (Greiner Bio-one) wherein compounds are serially diluted in 100% DMSO by 1:2 from a high concentration of 10 mM over 12 columns within a series (column 12 is a reference well containing DMSO, no compound). The compounds were robotically dispensed directly into assay plates (1×=46 nL) using a Hummingbird capillary liquid handling instrument (Digilab). Following compound dispense, protein and dye in buffer was added to achieve the final assay volume of 3 μL, followed by 1 μL of silicone oil.

The target in assay [2] is T2, full-length human RORγt (Homo sapiens, UniProt P51449).
T2 construct: expressed in transfected cells; host or cells: HEK293T, transiently transfected with pCMV-BD-ROR
T2 sequence (P51449 1-497 isoform P51449-2): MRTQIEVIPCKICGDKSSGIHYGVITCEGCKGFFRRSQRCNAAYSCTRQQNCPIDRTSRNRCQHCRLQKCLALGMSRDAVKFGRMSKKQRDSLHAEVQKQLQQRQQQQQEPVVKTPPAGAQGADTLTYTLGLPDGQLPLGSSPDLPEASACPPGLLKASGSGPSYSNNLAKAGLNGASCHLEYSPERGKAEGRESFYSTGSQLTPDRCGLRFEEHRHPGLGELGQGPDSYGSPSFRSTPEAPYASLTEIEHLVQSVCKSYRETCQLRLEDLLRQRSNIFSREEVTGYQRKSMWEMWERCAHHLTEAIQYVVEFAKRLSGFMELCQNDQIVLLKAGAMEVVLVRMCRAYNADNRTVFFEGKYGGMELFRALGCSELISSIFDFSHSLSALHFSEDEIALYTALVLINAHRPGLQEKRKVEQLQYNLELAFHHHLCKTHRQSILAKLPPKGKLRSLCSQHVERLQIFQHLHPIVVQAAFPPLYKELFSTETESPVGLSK
The assay is described as follows: RORγt (full-length human) Reporter Assay, Conditions A. The class given is cell-based. Conditions: for IC50: HEK293T cells, GAL4-DBD-RORγt, luciferase, read-out: RORγt (FL) Reporter Assay A, IC50; for inhibition at 2 µM: read-out: RORγt (FL) Reporter Assay A, % inhibition (* at 2 μM), 2 μM compound concentration (footnote *); for inhibition at 6 µM: read-out: RORγt (FL) Reporter Assay A, % inhibition @ 6 μM, 6 μM compound. On the procedure:
After overnight (16 to 20 hours) incubation, media were removed and cells were lysed with 20 μL 1× Passive Lysis Buffer (Promega) for 10-15 minutes. Luminescence was measured using a BMG LUMIstar OPTIMA plate reader, after addition of 75 μL/well firefly luciferase buffer, followed by 75 μL/well Renilla luciferase buffer. To calculate the effect of compounds on RORγt activity, firefly values were normalized against values of DMSO only and values of reference compound at saturating concentration, then further normalized against Renilla signals. IC50s were generated by plotting final Renilla normalized data against compound concentration and percent inhibition was calculated against DMSO control.

On to `CC[C@H](NS(=O)(=O)c1ccc(-c2sc(-c3nnc(C(C)(C)O)o3)nc2C(=O)N(CC)CC)c(Cl)c1Cl)C(F)(F)F` [Example 6, (S)-5-(2,3-Dichloro-4-(N-(1,1,1-trifluorobutan-2-yl)sulfamoyl)phenyl)-N,N-diethyl-2-(5-(2-hydroxypropan-2-yl)-1,3,4-oxadiazol-2-yl)thiazole-4-carboxamide], for which the Kd (in general, the concentration at which binding is half-saturated) in assay [1] was 0.99 nM. In assay [2], the half-maximal inhibitory concentration (IC50) (in general, the concentration that gives 50% inhibition) was determined as 13 nM and the inhibition (commonly the relative decrease from the control value, in per cent) at 2 µM was 105%.
Consider `C[C@H](NS(=O)(=O)c1ccc(-c2sc(-c3nnc(C(C)(C)O)o3)nc2C(=O)N2CCCC[C@@H]2C)c(C(F)F)c1F)C(F)(F)F` [Example 6/18, 3-(Difluoromethyl)-2-fluoro-4-(2-(5-(2-hydroxypropan-2-yl)-1,3,4-oxadiazol-2-yl)-4-((S)-2-methylpiperidine-1-carbonyl)thiazol-5-yl)-N—((S)-1,1,1-trifluoropropan-2-yl)benzenesulfonamide], for which the Kd in assay [1] is 1 nM. In assay [2], the IC50 came to 82 nM and the inhibition at 6 µM amounted to 104%.
Regarding `C[C@H](NS(=O)(=O)c1ccc(-c2sc(-c3noc(=O)[nH]3)nc2C(=O)N2CCC(F)CC2)c(Cl)c1Cl)C(F)(F)F` [Example 14, (S)-2,3-Dichloro-4-(4-(4-fluoropiperidine-1-carbonyl)-2-(5-oxo-4,5-dihydro-1,2,4-oxadiazol-3-yl)thiazol-5-yl)-N-(1,1,1-trifluoropropan-2-yl)benzenesulfonamide], the Kd in assay [1] was 280 nM. In addition, in assay [2], the IC50 was above 2000 nM and the inhibition at 2 µM is -25%.
Regarding `CC[C@H](NS(=O)(=O)c1ccc(-c2sc(-c3nnc(CC(C)(C)C#N)o3)nc2C(=O)N2CCC(F)CC2)c(Cl)c1Cl)C(F)(F)F` [Example 1/1, (S)-2,3-Dichloro-4-(2-(5-(2-cyano-2-methylpropyl)-1,3,4-oxadiazol-2-yl)-4-(4-fluoropiperidine-1-carbonyl)thiazol-5-yl)-N-(1,1,1-trifluorobutan-2-yl)benzenesulfonamide], the Kd in assay [1] is 1 nM. In addition, in assay [2], the IC50 is 10 nM and the inhibition at 6 µM was 106%.
On the same counts, the results for `CC1CCN(C(=O)c2nc(-c3nnc(C(N)=O)o3)sc2-c2ccc(S(=O)(=O)N[C@@H](C)C(F)(F)F)c3ccccc23)CC1` [Example 5, (S)-5-(4-(4-Methylpiperidine-1-carbonyl)-5-(4-(N-(1,1,1-trifluoropropan-2-yl)sulfamoyl)naphthalen-1-yl)thiazol-2-yl)-1,3,4-oxadiazole-2-carboxamide] are 37 nM, 170 nM and 106%.
On the same counts, the results for `CC[C@H](NS(=O)(=O)c1ccc(-c2sc(-c3nnc(C(C)(C)O)o3)nc2C(=O)N2CCC(F)CC2)c(Cl)c1)C(F)(F)F` [Example 6/11, (S)-3-Chloro-4-(4-(4-fluoropiperidine-1-carbonyl)-2-(5-(2-hydroxypropan-2-yl)-1,3,4-oxadiazol-2-yl)thiazol-5-yl)-N-(1,1,1-trifluorobutan-2-yl)benzenesulfonamide] are 9.3 nM, 69 nM and 104%.
In the case of `CC(C)(O)c1nnc(-c2nc(C(=O)N3CCC(F)(F)CC3)c(-c3ccc(C(O)(C(F)(F)F)C(F)(F)F)cc3C(F)F)s2)o1` [Example 28, (5-(2-(difluoromethyl)-4-(1,1,1,3,3,3-hexafluoro-2-hydroxypropan-2-yl)phenyl)-2-(5-(2-hydroxypropan-2-yl)-1,3,4-oxadiazol-2-yl)thiazol-4-yl)(4,4-difluoropiperidin-1-yl)methanone], the Kd in assay [1] was 5.5 nM.
As to `CC[C@H](NS(=O)(=O)c1ccc(-c2sc(-c3nnc(C(C)(C)O)o3)nc2C(=O)N2CCC(F)CC2)c(Cl)c1Cl)C(F)(F)F` [Example 6/1, (S)-2,3-Dichloro-4-(4-(4-fluoropiperidine-1-carbonyl)-2-(5-(2-hydroxypropan-2-yl)-1,3,4-oxadiazol-2-yl)thiazol-5-yl)-N-(1,1,1-trifluorobutan-2-yl)benzenesulfonamide], the inhibition at 2 µM in assay [2] was found to be 102%.
Consider `CC[C@H](NS(=O)(=O)c1ccc(-c2sc(-c3noc(CC(C)(C)C(=O)O)n3)nc2C(=O)N2CCCC[C@@H]2C)c(C(F)F)c1Cl)C(F)(F)F` [Example 10/4, 3-(3-(5-(3-Chloro-2-(difluoromethyl)-4-(N—((S)-1,1,1-trifluorobutan-2-yl)sulfamoyl)phenyl)-4-((S)-2-methylpiperidine-1-carbonyl)thiazol-2-yl)-1,2,4-oxadiazol-5-yl)-2,2-dimethylpropanoic acid], for which, in assay [2], the IC50 was determined as 33 nM and the inhibition at 6 µM stood at 99%.
Consider `CC[C@H](NS(=O)(=O)c1ccc(-c2sc(-c3noc(CC(C)(C)C(=O)O)n3)nc2C(=O)N2CCCC[C@@H]2C)c(Cl)c1Cl)C(F)(F)F` [Example 10, 3-(3-(5-(2,3-Dichloro-4-(N—((S)-1,1,1-trifluorobutan-2-yl)sulfamoyl)phenyl)-4-((S)-2-methylpiperidine-1-carbonyl)thiazol-2-yl)-1,2,4-oxadiazol-5-yl)-2,2-dimethylpropanoic acid], for which, in assay [2], the half-maximal inhibitory concentration (IC50) amounted to 9 nM and the inhibition at 6 µM was 104%.
For the molecule `C[C@H]1CCCN1C(=O)c1nc(-c2noc(C(C)(C)O)n2)sc1-c1ccc(C(O)(C(F)(F)F)C(F)(F)F)cc1C(F)F` [Example 30, (S)-(5-(2-(difluoromethyl)-4-(1,1,1,3,3,3-hexafluoro-2-hydroxypropan-2-yl)phenyl)-2-(5-(2-hydroxypropan-2-yl)-1,2,4-oxadiazol-3-yl)thiazol-4-yl)(2-methylpyrrolidin-1-yl)methanone], in assay [1], the Kd was 22 nM.
Same read-out and setting: then `C[C@H]1CCCN1C(=O)c1nc(-c2nnc(C(C)(C)O)o2)sc1-c1ccc(C(O)(C(F)(F)F)C(F)(F)F)cc1C(F)F` [Example 29, (S)-(5-(2-(difluoromethyl)-4-(1,1,1,3,3,3-hexafluoro-2-hydroxypropan-2-yl)phenyl)-2-(5-(2-hydroxypropan-2-yl)-1,3,4-oxadiazol-2-yl)thiazol-4-yl)(2-methylpyrrolidin-1-yl)methanone], with 17 nM; and `Cc1cc(C(O)(C(F)(F)F)C(F)(F)F)ccc1-c1sc(-c2nnc(C(C)(C)O)o2)nc1C(=O)N1CCC[C@@H]1C` [Example 31, (S)-(5-(4-(1,1,1,3,3,3-hexafluoro-2-hydroxypropan-2-yl)-2-methylphenyl)-2-(5-(2-hydroxypropan-2-yl)-1,3,4-oxadiazol-2-yl)thiazol-4-yl)(2-methylpyrrolidin-1-yl)methanone], with 18 nM.
As for `Cc1cc(C(O)(C(F)(F)F)C(F)(F)F)ccc1-c1sc(-c2noc(C(C)(C)O)n2)nc1C(=O)N1CCC[C@@H]1C` [Example 32, (S)-(5-(4-(1,1,1,3,3,3-hexafluoro-2-hydroxypropan-2-yl)-2-methylphenyl)-2-(5-(2-hydroxypropan-2-yl)-1,2,4-oxadiazol-3-yl)thiazol-4-yl)(2-methylpyrrolidin-1-yl)methanone], the Kd in assay [1] is 27 nM.
